Key:
[1] = target: T1, hSERT (Homo sapiens, UniProt P31645); experiment: Radioligand binding, hSERT ([3H]citalopram)
T1 construct: expressed in transfected cells; host or cells: HEK 293 cells (membrane preparation)
Description: Binding affinities at human monoamine receptors and transporters were assessed as previously reported. A detailed description of the methodology is provided in the Supplementary information.
The IC50 values from the radioligand binding assays were determined by nonlinear regression, using three independent concentration-response curves fitted to a one-site model. The Cheng-Prusoff equation was used to calculate Kᵢ values for the competing ligands. EC50 values were determined by applying nonlinear regression to concentration-response curves. Bias factors (β) were calculated based on the relative intrinsic activity approach. More detailed information can be found in the Supplementary information. Mean values for total number of HTR, change in body temperature from pre to post session (Δ°C), and total distance traveled (cm) for each drug dose were compared (p < 0.05) via Welch’s ANOVA with Dunnett’s T3 post test, comparing all doses to respective vehicle controls (0 mg/kg). Welch’s ANOVA with Dunnett’s T3 post test was also used to compare drug concentrations, but the data were compared to DOM in this case. Dose–response relationships for HTR and locomotor activities were plotted using bell-shaped curve fits, while temperature change data were plotted using four-parameter non-linear regression curve fits. The ascending phase of the HTR curve for each drug was used to determine ED50 potency values from four parameter non-linear regression fits. For combined DOM and DOAM administration, the plasma, brain tissue, and brain dialysate drug concentrations were compared using paired t-tests (p < 0.05).
3.1 Assessment of receptor and transporter binding affinities
Membrane preparations were prepared from cells transfected with the respective target. The membrane preparations were then incubated with selective radioligands at concentrations equal to the corresponding Kd and displacement of the ligand by the drugs was measured. The difference between total binding and nonspecific binding (determined in the presence of selective competitors) was defined as specific binding of the radioligand to the target receptor. The following transfected cell lines were used for the binding assays: HEK 293 cells (h5-HT1A, h5-HT2A, h5-HT2B, h5-HT2C, and hD2 receptors, hDAT, hNET, and hSERT), Chinese hamster ovary cells (hα 1A receptor), and Chinese hamster lung cells (hα 2A receptor).
3.1.1 Membrane preparations for receptor and transporter binding
For producing membrane preparations, transfected cells were harvested with trypsin/EDTA, washed with ice-cold phosphate buffered saline, and then pelleted by centrifugation (210 × g for 5 min at 4 °C). The pellets were frozen and stored at -80 °C until use. Frozen pellets were resuspended in 20 m L (receptor binding) or 400 m L (transporter binding) buffer (20 mM HEPES -NaOH, 10 mM EDTA, pH 7.4), and homogenized at 1,100 × g for 20 s (receptor binding) or 560 × g for 15 s (transporter binding); the homogenates were then centrifuged at 48,000 × g for 30 min at 4 °C. For receptor binding assays, the supernatants were discarded and the pellets were resuspended in 20 mL buffer (20 mM HEPES-NaOH, 0.1 mM EDTA, pH 7.4) and homogenized at 1 ,100 × g for 20 s. Centrifugation and discarding of the supernatant were repeated once, and the final pellet was then resuspended in buffer and homogenized.
3.1.2 Serotonin 5-HT1A and 5-HT2A receptor binding
Competitive binding at the h5-HT1A and h5-HT2A receptor was determined using 0.90 nM [ 3H]8-hydroxy-2-(di-n-propylamine)tetralin ([ 3H]8-OH-DPAT; h5-HT1A receptor agonist) and 0.40 nM [3H]ketanserin (h5-HT2 receptor antagonist) as radioligands. […]
binding of the radioligands was defined as difference between total binding (binding buffer alone) and nonspecific binding determined in the presence of 10 μM pindolol (h5-HT1A receptor antagonist) or 10 μM spiperone (h 5-HT2A receptor antagonist).

[2] = target: h5-HT2A (Homo sapiens, UniProt P28223); experiment: IP1 formation (Gαq-mediated signaling), h5-HT2A; assay type: cell-based; parameters: expressed in transfected cells; host or cells: HEK 293 cells (membrane preparation); settings: for Emax: read-out: IP1 formation Emax h5-HT2A (95% CI)
[3] = hSERT Ki, mean (95% CI), HEK 293 membranes

Chain of h5-HT2A (P28223 whole entry, looked up): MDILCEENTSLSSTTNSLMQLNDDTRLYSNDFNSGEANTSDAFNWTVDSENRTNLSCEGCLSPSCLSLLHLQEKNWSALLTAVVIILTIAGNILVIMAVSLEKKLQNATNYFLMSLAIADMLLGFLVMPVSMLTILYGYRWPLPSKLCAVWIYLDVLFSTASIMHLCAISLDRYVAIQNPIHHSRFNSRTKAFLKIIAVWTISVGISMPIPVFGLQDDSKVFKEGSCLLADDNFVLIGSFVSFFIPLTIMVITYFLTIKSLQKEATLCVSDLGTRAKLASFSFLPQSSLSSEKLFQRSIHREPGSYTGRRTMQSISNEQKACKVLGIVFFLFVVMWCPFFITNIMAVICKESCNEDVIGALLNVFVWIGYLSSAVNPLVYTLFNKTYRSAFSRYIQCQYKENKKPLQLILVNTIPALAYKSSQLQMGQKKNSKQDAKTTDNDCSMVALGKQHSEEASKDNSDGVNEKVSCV
T1 sequence (P31645 whole entry): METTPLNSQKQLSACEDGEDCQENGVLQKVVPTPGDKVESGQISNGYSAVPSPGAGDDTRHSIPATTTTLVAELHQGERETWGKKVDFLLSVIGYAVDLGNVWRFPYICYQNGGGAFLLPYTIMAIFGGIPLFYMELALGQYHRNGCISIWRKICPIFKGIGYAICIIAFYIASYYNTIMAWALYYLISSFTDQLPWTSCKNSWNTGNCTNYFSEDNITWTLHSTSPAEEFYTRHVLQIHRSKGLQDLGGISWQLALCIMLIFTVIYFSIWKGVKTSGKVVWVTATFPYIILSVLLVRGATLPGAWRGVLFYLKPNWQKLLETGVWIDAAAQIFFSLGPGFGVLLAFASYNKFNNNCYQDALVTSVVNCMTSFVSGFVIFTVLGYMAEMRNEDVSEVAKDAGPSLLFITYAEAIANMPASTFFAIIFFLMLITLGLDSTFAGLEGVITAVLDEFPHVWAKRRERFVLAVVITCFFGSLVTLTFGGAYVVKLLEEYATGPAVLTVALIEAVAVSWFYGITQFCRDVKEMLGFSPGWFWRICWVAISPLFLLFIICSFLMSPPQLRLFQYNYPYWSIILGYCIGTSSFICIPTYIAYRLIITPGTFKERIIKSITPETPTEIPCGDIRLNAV

| SMILES | Ki [1, 3] [µM] | Emax [2] [%] | EC50 [2] [nM] | Agonist type for Gαq signaling at the 5-HT2A receptor [2] | Ki ([1]; Ki SERT, text value (range DAT and SERT 3.6–4.6)) [µM] |
| --- | --- | --- | --- | --- | --- |
| COc1ccc(OC)c(CC(C)N)c1.Cl (stereo not shown) [2,5-DMA, 2,5-Dimethoxyamphetamine hydrochloride] | > 7 | 99 | – | – | – |
| CCCc1cc(OC)c(CC(C)N)cc1OC.Cl (stereo not shown) [DOPR, 4-propyl-2,5-dimethoxyamphetamine hydrochloride] | > 7 | 96 | 1.9 | – | – |
| COc1cc(CC(C)N)c(OC)cc1C (stereo not shown) [DOM, 4-methyl-2,5-dimethoxyamphetamine] | > 7 | 92 | 21 | high efficacy partial agonists | – |
| CCCCc1cc(OC)c(CC(C)N)cc1OC (stereo not shown) [DOBU, 4-butyl-2,5-dimethoxyamphetamine] | > 7 | 90 | 2.8 | high efficacy partial agonists | – |
| CCc1cc(OC)c(CC(C)N)cc1OC (stereo not shown) [DOET, 4-ethyl-2,5-dimethoxyamphetamine] | > 7 | 93 | 12 | high efficacy partial agonists | – |
| CCCCCc1cc(OC)c(CC(C)N)cc1OC (stereo not shown) [DOAM, 4-amyl-2,5-dimethoxyamphetamine] | 4.63 | 83 | 8.1 | high efficacy partial agonists | 4.6 |
